A word on the inhibition: it is the change of the read-out against control, counted positive when it falls.

The target of data set [1] is T1, 17-beta-hydroxysteroid dehydrogenase type 1 (Homo sapiens) (UniProt P14061).
T1 sequence (whole entry): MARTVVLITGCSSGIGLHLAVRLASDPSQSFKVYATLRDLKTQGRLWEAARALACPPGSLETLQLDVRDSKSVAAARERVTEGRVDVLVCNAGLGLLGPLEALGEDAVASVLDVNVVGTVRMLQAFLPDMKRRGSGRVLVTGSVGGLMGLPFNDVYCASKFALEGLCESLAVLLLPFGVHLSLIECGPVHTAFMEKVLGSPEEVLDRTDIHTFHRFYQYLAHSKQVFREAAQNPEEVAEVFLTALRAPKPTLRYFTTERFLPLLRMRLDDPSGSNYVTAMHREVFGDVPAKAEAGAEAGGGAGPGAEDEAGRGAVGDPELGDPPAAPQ
Description: Inhibition of 17beta-HSD1 in human T47D cells assessed as decrease in transformation of [14C]estrone to [14C]-estradiol at 0.01 uM after 24 hrs by thin layer chromatography. It counts as cell-based.

The target of data set [2] is T1, 17-beta-hydroxysteroid dehydrogenase type 1 (Homo sapiens). As to the kind of experiment: Inhibition of 17beta-HSD1 in human T47D cells assessed as decrease in transformation of [14C]estrone to [14C]-estradiol at 0.1 uM after 24 hrs by thin layer chromatography. The class given is cell-based.
Data set [3] deals with MCF7. Description: Estrogenic activity in estrogen-starved estrogen sensitive human MCF7 cells assessed as stimulation of cell proliferation at 0.1 to 1 uM after 7 days by CellTiter96 assay. The class given is ADME, cell-based. The settings on record: mcf7, 168 h.

As for `C[C@]12CC[C@@H]3c4ccc(O)cc4CC[C@H]3[C@@H]1C[C@H](Cc1cccc(C(N)=O)c1)[C@@H]2O`, the results for the inhibition in data set [1] and in data set [2] were 35% and 66%, respectively.
As to `C[C@]12CC[C@@H]3c4ccc(CBr)cc4CC[C@H]3[C@@H]1C[C@H](Cc1cccc(C(N)=O)c1)[C@@H]2O`, the results for the inhibition in data set [1] and in data set [2] were 20% and 36%, respectively.
Consider `C[C@]12CC[C@@H]3c4ccc(CCBr)cc4CC[C@H]3[C@@H]1C[C@H](Cc1cccc(C(N)=O)c1)[C@@H]2O`, for which the Activity result in data set [3] is “Non-toxic”. The values for the inhibition in data set [1] and in data set [2] were 23% and 49%, respectively.
Consider `C[C@]12CC[C@@H]3c4ccc(CCO)cc4CC[C@H]3[C@@H]1C[C@H](Cc1cccc(C(N)=O)c1)[C@@H]2O`, for which the inhibition in data set [1] was 7%; in data set [2], 17%.
As for `C[C@]12CC[C@@H]3c4ccc(CO)cc4CC[C@H]3[C@@H]1C[C@H](Cc1cccc(C(N)=O)c1)[C@@H]2O`, the inhibition in data set [1] was 14%.

The record behind these values is ChEMBL document CHEMBL2203102, “Crucial Role of 3-Bromoethyl in Removing the Estrogenic Activity of 17β-HSD1 Inhibitor 16β-(m-Carbamoylbenzyl)estradiol” (ACS Med Chem Lett, 2011).
